Numbers after ± are expanded uncertainties.
Tests used:
[1] = for surface tension liquid-gas: Maximal bubble pressure; for mass density: 100 kPa, Liquid, Vibrating tube method
[2] = xn = mol fraction of the nth substance listed; settings: x2 = 0; for surface tension liquid-gas: Maximal bubble pressure; for mass density: 100 kPa, Liquid, Vibrating tube method

Work on CC(C)O [propan-2-ol] yielded a surface tension liquid-gas ([1]; 288.15 K) of 20.6 ± 1.5 mN/m, a mass density ([1]; 288.15 K) of 789.224 ± 1.3 kg/m3 and a surface tension liquid-gas ([1]; 293.15 K) of 20.2 ± 1.5 mN/m. The mass density ([1]; 293.15 K) was 785.088 ± 1.3 kg/m3, the surface tension liquid-gas ([1]; 298.15 K) was 19.8 ± 1.5 mN/m and the mass density ([1]; 298.15 K) was 780.887 ± 1.3 kg/m3. The surface tension liquid-gas ([1]; 303.15 K) was 19.5 ± 1.5 mN/m, the mass density ([1]; 303.15 K) was 776.617 ± 1.3 kg/m3 and the surface tension liquid-gas ([1]; 308.15 K) was 19.1 ± 1.5 mN/m. For the same compound, the mass density ([1]; 308.15 K) was 772.266 ± 1.3 kg/m3, the surface tension liquid-gas ([1]; 313.15 K) was 18.7 ± 1.5 mN/m and the mass density ([1]; 313.15 K) was 767.829 ± 1.3 kg/m3. It also gave a surface tension liquid-gas ([1]; 318.15 K) of 18.4 ± 1.5 mN/m and a mass density ([1]; 318.15 K) of 763.293 ± 1.3 kg/m3.

CCCO [propan-1-ol] + CCn1cc[n+](CCOC)c1.O=S(=O)([O-])C(F)(F)F showed a surface tension liquid-gas ([2]; 288.15 K) of 22.9 ± 1.5 mN/m, a mass density ([2]; 288.15 K) of 807.507 ± 1.3 kg/m3 and a surface tension liquid-gas ([2]; 293.15 K) of 22.5 ± 1.5 mN/m. For the same compound, the mass density ([2]; 293.15 K) was 803.519 ± 1.3 kg/m3, the surface tension liquid-gas ([2]; 298.15 K) was 22.1 ± 1.5 mN/m and the mass density ([2]; 298.15 K) was 799.514 ± 1.3 kg/m3. For the same compound, the surface tension liquid-gas ([2]; 303.15 K) was 21.8 ± 1.5 mN/m, the mass density ([2]; 303.15 K) was 795.48 ± 1.3 kg/m3 and the surface tension liquid-gas ([2]; 308.15 K) was 21.4 ± 1.5 mN/m. The mass density ([2]; 308.15 K) was 791.416 ± 1.3 kg/m3, the surface tension liquid-gas ([2]; 313.15 K) was 21 ± 1.5 mN/m and the mass density ([2]; 313.15 K) was 787.306 ± 1.3 kg/m3. It also gave a surface tension liquid-gas ([2]; 318.15 K) of 20.6 ± 1.5 mN/m and a mass density ([2]; 318.15 K) of 783.149 ± 1.3 kg/m3.

Work on CC(C)O [propan-2-ol] + CCn1cc[n+](CCOC)c1.O=S(=O)([O-])C(F)(F)F yielded a surface tension liquid-gas ([2]; 288.15 K) of 20.6 ± 1.5 mN/m, a mass density ([2]; 288.15 K) of 789.224 ± 1.3 kg/m3 and a surface tension liquid-gas ([2]; 293.15 K) of 20.2 ± 1.5 mN/m. It also gave a mass density ([2]; 293.15 K) of 785.088 ± 1.3 kg/m3, a surface tension liquid-gas ([2]; 298.15 K) of 19.8 ± 1.5 mN/m and a mass density ([2]; 298.15 K) of 780.887 ± 1.3 kg/m3. For the same compound, the surface tension liquid-gas ([2]; 303.15 K) was 19.5 ± 1.5 mN/m, the mass density ([2]; 303.15 K) was 776.617 ± 1.3 kg/m3 and the surface tension liquid-gas ([2]; 308.15 K) was 19.1 ± 1.5 mN/m. The mass density ([2]; 308.15 K) was 772.266 ± 1.3 kg/m3, the surface tension liquid-gas ([2]; 313.15 K) was 18.7 ± 1.5 mN/m and the mass density ([2]; 313.15 K) was 767.829 ± 1.3 kg/m3. It also gave a surface tension liquid-gas ([2]; 318.15 K) of 18.4 ± 1.5 mN/m and a mass density ([2]; 318.15 K) of 763.293 ± 1.3 kg/m3.

For CCO [ethanol] + CCn1cc[n+](CCOC)c1.O=S(=O)([O-])C(F)(F)F, the surface tension liquid-gas ([2]; 288.15 K) was 21.9 ± 1.5 mN/m, the mass density ([2]; 288.15 K) was 794.308 ± 1.3 kg/m3 and the surface tension liquid-gas ([2]; 293.15 K) was 21.4 ± 1.5 mN/m. It also gave a mass density ([2]; 293.15 K) of 790.041 ± 1.3 kg/m3, a surface tension liquid-gas ([2]; 298.15 K) of 20.9 ± 1.5 mN/m and a mass density ([2]; 298.15 K) of 785.746 ± 1.3 kg/m3. The surface tension liquid-gas ([2]; 303.15 K) was 20.5 ± 1.5 mN/m, the mass density ([2]; 303.15 K) was 781.43 ± 1.3 kg/m3 and the surface tension liquid-gas ([2]; 308.15 K) was 20 ± 1.5 mN/m. The mass density ([2]; 308.15 K) was 777.078 ± 1.3 kg/m3, the surface tension liquid-gas ([2]; 313.15 K) was 19.5 ± 1.5 mN/m and the mass density ([2]; 313.15 K) was 772.688 ± 1.3 kg/m3. The surface tension liquid-gas ([2]; 318.15 K) was 19 ± 1.5 mN/m and the mass density ([2]; 318.15 K) was 768.257 ± 1.3 kg/m3.

CCn1cc[n+](CCOC)c1.O=S(=O)([O-])C(F)(F)F gave a surface tension liquid-gas ([1]; 288.15 K) of 36.3 ± 1.5 mN/m, a mass density ([1]; 288.15 K) of 1348.94 ± 1.4 kg/m3 and a surface tension liquid-gas ([1]; 293.15 K) of 36.1 ± 1.5 mN/m. For the same compound, the mass density ([1]; 293.15 K) was 1344.66 ± 1.4 kg/m3, the surface tension liquid-gas ([1]; 298.15 K) was 35.8 ± 1.5 mN/m and the mass density ([1]; 298.15 K) was 1340.41 ± 1.4 kg/m3. It also gave a surface tension liquid-gas ([1]; 303.15 K) of 35.5 ± 1.5 mN/m, a mass density ([1]; 303.15 K) of 1336.17 ± 1.4 kg/m3 and a surface tension liquid-gas ([1]; 308.15 K) of 35.3 ± 1.5 mN/m. For the same compound, the mass density ([1]; 308.15 K) was 1331.96 ± 1.4 kg/m3, the surface tension liquid-gas ([1]; 313.15 K) was 35.1 ± 1.5 mN/m and the mass density ([1]; 313.15 K) was 1327.77 ± 1.4 kg/m3. It also gave a surface tension liquid-gas ([1]; 318.15 K) of 34.9 ± 1.5 mN/m and a mass density ([1]; 318.15 K) of 1323.6 ± 1.4 kg/m3.

For CCCO [propan-1-ol], the surface tension liquid-gas ([1]; 288.15 K) was 22.9 ± 1.5 mN/m, the mass density ([1]; 288.15 K) was 807.507 ± 1.3 kg/m3 and the surface tension liquid-gas ([1]; 293.15 K) was 22.5 ± 1.5 mN/m. It also gave a mass density ([1]; 293.15 K) of 803.519 ± 1.3 kg/m3, a surface tension liquid-gas ([1]; 298.15 K) of 22.1 ± 1.5 mN/m and a mass density ([1]; 298.15 K) of 799.514 ± 1.3 kg/m3. The surface tension liquid-gas ([1]; 303.15 K) was 21.8 ± 1.5 mN/m, the mass density ([1]; 303.15 K) was 795.48 ± 1.3 kg/m3 and the surface tension liquid-gas ([1]; 308.15 K) was 21.4 ± 1.5 mN/m. The mass density ([1]; 308.15 K) was 791.416 ± 1.3 kg/m3, the surface tension liquid-gas ([1]; 313.15 K) was 21 ± 1.5 mN/m and the mass density ([1]; 313.15 K) was 787.306 ± 1.3 kg/m3. It also gave a surface tension liquid-gas ([1]; 318.15 K) of 20.6 ± 1.5 mN/m and a mass density ([1]; 318.15 K) of 783.149 ± 1.3 kg/m3.

CCO [ethanol] gave a surface tension liquid-gas ([1]; 288.15 K) of 21.9 ± 1.5 mN/m, a mass density ([1]; 288.15 K) of 794.308 ± 1.3 kg/m3 and a surface tension liquid-gas ([1]; 293.15 K) of 21.4 ± 1.5 mN/m. For the same compound, the mass density ([1]; 293.15 K) was 790.041 ± 1.3 kg/m3, the surface tension liquid-gas ([1]; 298.15 K) was 20.9 ± 1.5 mN/m and the mass density ([1]; 298.15 K) was 785.746 ± 1.3 kg/m3. It also gave a surface tension liquid-gas ([1]; 303.15 K) of 20.5 ± 1.5 mN/m, a mass density ([1]; 303.15 K) of 781.43 ± 1.3 kg/m3 and a surface tension liquid-gas ([1]; 308.15 K) of 20 ± 1.5 mN/m. It also gave a mass density ([1]; 308.15 K) of 777.078 ± 1.3 kg/m3, a surface tension liquid-gas ([1]; 313.15 K) of 19.5 ± 1.5 mN/m and a mass density ([1]; 313.15 K) of 772.688 ± 1.3 kg/m3. It also gave a surface tension liquid-gas ([1]; 318.15 K) of 19 ± 1.5 mN/m and a mass density ([1]; 318.15 K) of 768.257 ± 1.3 kg/m3.

Source: the NIST ThermoML archive (doi:10.1016/j.tca.2019.178383)
